The subject of data set [1] is α-1,4-glucan lyase. The data set is described as follows: Effect of alcohols on activity and stability of the lyase (AF yield). The data set is classed as biochemical, Gracilariopsis lemaneiformis. How it is done:
1-propanol, 2-propanol and 1-butanol were tested at the following concentrations (0%, 1%, 5% and 10%).
Ethanol was tested at the following concentrations (0, 1, 3, 5, 7, 9, 11, 13, 15%).

In data set [2] the test system is α-1,4-glucan lyase. The data set is described as follows: Degradation studies: AF released by the lyase from various substrates. The data set is classed as biochemical, Gracilariopsis lemaneiformis. The following applies: for activity of the lyase towards maltosaccharides / degradation by the lyase: in words; for AF released: substrate 10 mg/ml, 10 mM HOAc-NaOAc pH 3.8, 40 min at 45° C., 100 ul. How it is done:
Reaction conditions: The reaction mixture contained 10 mM of HOAc-NaOAc (pH 3.8). The substrate concentration was 10 mg/ml. The final volume was 100 ul after the addition of lyase and water. The reaction time was 40 min at 45° C.

The test system of data set [3] is α-1,4-glucan lyase. The data set is described as follows: Reversible and irreversible inhibitors of the lyase. It counts as biochemical, Gracilariopsis lemaneiformis.
Data set [4] in a line: Isoelectric focusing of the α-1,4-glucan lyases. It counts as physicochemical. Conditions: isoelectrofocusing, pH gradient 3-9. From the text: The relative migration rates were estimated from native PAGE on gels with 8-25% gradient; the pI values were estimated by isoelectrofocusing on gels with a pH gradient of 3-9.
FIG. 2. Isoelectric focusing of the α-1,4-glucan lyases on a gel with a pH gradient of pH 3 to pH 9. The gel was stained with PhastGel Blue R.

With 1-butanol, the “increase of AF yield” value in the data set with α-1,4-glucan lyase [1] (optimal concentration 5%, after 3-day incubation) is listed as 52%.

Regarding 1-propanol, the AF yield with α-1,4-glucan lyase [1] (1% (v/v), reaction time 1 day) came to 80 µmol; with α-1,4-glucan lyase [1] (1% (v/v), reaction time 3 days), 280 µmol; in the data set with α-1,4-glucan lyase [1] (1% (v/v), reaction time 6 days) it was 530 µmol; in the data set with α-1,4-glucan lyase [1] (1% (v/v), reaction time 10 days), 803 µmol; in the data set with α-1,4-glucan lyase [1] (5% (v/v), reaction time 1 day) it was 115 µmol; with α-1,4-glucan lyase [1] (5% (v/v), reaction time 3 days) it was 367 µmol. Further, the AF yield amounted to 605 µmol in the data set with α-1,4-glucan lyase [1] (5% (v/v), reaction time 6 days); 853 µmol in the data set with α-1,4-glucan lyase [1] (5% (v/v), reaction time 10 days); 107 µmol with α-1,4-glucan lyase [1] (10% (v/v), reaction time 1 day); 307 µmol in the data set with α-1,4-glucan lyase [1] (10% (v/v), reaction time 3 days); 456 µmol with α-1,4-glucan lyase [1] (10% (v/v), reaction time 6 days); 583 µmol with α-1,4-glucan lyase [1] (10% (v/v), reaction time 10 days). For the same molecule, the “increase of AF yield” value in the data set with α-1,4-glucan lyase [1] (optimal concentration 5%, after 6 days of incubation) is given as 34%.

Regarding `CC(C)O` [2-propanol], the “increase of AF yield” value in the data set with α-1,4-glucan lyase [1] (optimal concentration 1%, after 10 days incubation) turned out to be 20%.

Regarding `CCO` [Ethanol], the “increase of AF yield” value in the data set with α-1,4-glucan lyase [1] (optimal concentration 3%, 10 days incubation) was determined as 16%; with α-1,4-glucan lyase [1] (optimal concentration 5%, 7 days incubation), 12%.

Take `OC[C@H]1O[C@H](O[C@H]2[C@H](O)[C@@H](O)[C@@H](O[C@H]3[C@H](O)[C@@H](O)[C@@H](O[C@H]4[C@H](O)[C@@H](O)C(O)O[C@@H]4CO)O[C@@H]3CO)O[C@@H]2CO)[C@H](O)[C@@H](O)[C@@H]1O` (stereo partly drawn) [Maltotetraose]: in the data set on α-1,4-glucan lyase [2], the “activity of the lyase towards maltosaccharides” value is “highest activity” and the AF released is on record as 670 nmol.

Regarding `OCC1OC(OC2C(CO)OC(OC3C(CO)OC(O)C(O)C3O)C(O)C2O)C(O)C(O)C1O` (stereo not drawn) [Maltotriose], in the data set with α-1,4-glucan lyase [2], the “activity of the lyase towards maltosaccharides” value is reported as “lower activity” and the AF released came to 654 nmol.

On to `O=C(O)c1cc[c]([Hg][Cl])cc1` [PCMB, p-chloromercuribenzoic acid], for which, in the data set on α-1,4-glucan lyase [3] (2 mM PCMB, same assay conditions as for deoxyjirimycin (substrate 2% amylopectin)), the “decrease of lyase activity” value was 60%. The “inhibition of the lyase activity” value with α-1,4-glucan lyase [3] (final concentration 2 mM PCMB) is 96%.

`OC[C@H]1NC[C@H](O)[C@@H](O)[C@@H]1O` [deoxyjirimycin]: in the data set with α-1,4-glucan lyase [3] (25 μM inhibitor, substrate amylopectin 2%, algal lyase), the remaining lyase activity amounted to 10.4%. The lyase activity result with α-1,4-glucan lyase [3] (100 μM inhibitor, substrate amylopectin 2%) is given as “completely lost”.

In the case of `OC[C@H]1O[C@H](OC[C@H]2OC(O)[C@H](O)[C@@H](O)[C@@H]2O)[C@H](O)[C@@H](O)[C@@H]1O` (stereo partly drawn) [isomaltose], in the data set with α-1,4-glucan lyase [2], the “degradation by the lyase” value is given as “not able to degrade”.

As for `OC[C@H]1O[C@H](O[C@H]2[C@H](O)[C@@H](CO)OC(O)[C@@H]2O)[C@H](O)[C@@H](O)[C@@H]1O` (stereo partly drawn) [nigerose], in the data set with α-1,4-glucan lyase [2], the “degradation by the lyase” value is reported as “slow rate”.

As for `OC[C@H]1O[C@H](O[C@H]2O[C@H](CO)[C@@H](O)[C@H](O)[C@H]2O)[C@H](O)[C@@H](O)[C@@H]1O` [trehalose], in the data set on α-1,4-glucan lyase [2], the “degradation by the lyase” value is on record as “not able to degrade”.

Regarding `OC[C@H]1O[C@@H]2O[C@H]3[C@H](O)[C@@H](O)[C@@H](O[C@H]4[C@H](O)[C@@H](O)[C@@H](O[C@H]5[C@H](O)[C@@H](O)[C@@H](O[C@H]6[C@H](O)[C@@H](O)[C@@H](O[C@H]7[C@H](O)[C@@H](O)[C@@H](O[C@H]8[C@H](O)[C@@H](O)[C@@H](O[C@H]1[C@H](O)[C@H]2O)O[C@@H]8CO)O[C@@H]7CO)O[C@@H]6CO)O[C@@H]5CO)O[C@@H]4CO)O[C@@H]3CO` [β-cyclodextrins], the “degradation by the lyase” value in the data set with α-1,4-glucan lyase [2] is “not able to degrade”.

As for Maltoheptaose, in the data set with α-1,4-glucan lyase [2], the “activity of the lyase towards maltosaccharides” value was “lower activity” and the AF released worked out at 865 nmol.

For Maltohexaose, the AF released in the data set on α-1,4-glucan lyase [2] stood at 826 nmol.

In the case of Maltopentaose, in the data set with α-1,4-glucan lyase [2], the “activity of the lyase towards maltosaccharides” value is on record as “highest activity” and the AF released was found to be 674 nmol.

In the case of nigeran tetrasaccharide, in the data set on α-1,4-glucan lyase [2], the “degradation by the lyase” value is recorded as “not able to degrade”.

As for panose, in the data set with α-1,4-glucan lyase [2], the “degradation by the lyase” value is “slow rate”.

Regarding pullulan, the “degradation by the lyase” value in the data set with α-1,4-glucan lyase [2] is recorded as “not able to degrade”.

B1: MC-lyase: lyase isolated from the fungus Morchella costata, ATCC (protein)
chain: MAGFSDPLNFCKAEDYYSVALDWKGPQKIIGVDTTPPKSTKFPKNWHGVNLRFDDGTLGVVQFIRPCVWRVRYDPGFKTSDEYGDENTRTIVQDYMSTLSNKLDTYRGLTWETKCEDSGDFFTFSSKVTAVEKSERTRNKVGDGLRIHLWKSPFRIQVVRTLTPLKDPYPIPNVAAAEARVSDKVVWQTSPKTFRKNLHPQHKMLKDTVLDIVKPGHGEYVGWGEMGGIQFMKEPTFMNYFNFDNMQYQQVYAQGALDSREPLYHSDPFYLDVNSNPEHKNITATFIDNYSQIAIDFGKTNSGYIKLGTRYGGIDCYGISADTVPEIVRLYTGLVGRSKLKPRYILGAHQACYGYQQESDLYSVVQQYRDCKFPLDGIHVDVDVQDGFRTFTTNPHTFPNPKEMFTNLRNNGIKCSTNITPVISINNREGGYSTLLEGVDKKYFIMDDRYTEGTSGNAKDVRYMYYGGGNKVEVDPNDVNGRPDFKDNYDFPANFNSKQYPYHGGVSYGYGNGSAGFYPDLNRKEVRIWWGMQYKYLFDMGLEFVWQDMTTPAIHTSYGDMKGLPTRLLVTSDSVTNASEKKLAIETWALYSYNLHKATWHGLSRLESRKNKRNFILGRGSYAGAYRFAGLWTGDNASNWEFWKISVSQVLSLGLNGVCIAGSDTGGFEPYRDANGVEEKYCSPELLIRWYTGSFLLPWLRNHYVKKDRKWFQEPYSYPKHLETHPELADQAWLYKSVLEICRYYVELRYSLIQLLYDCMFQNVVDGMPITRSMLLTDTEDTTFFNESQKFLDNQYMAGDDILVAPILHSRKEIPGENRDVYLPLYHTWYPSNLRPWDDQGVALGNPVEGGSVINYTARIVAPEDYNLFHSVVPVYVREGAIIPQIEVRQWTGQGGANRIKFNIYPGKDKEYCTYLDDGVSRDSAPEDLPQYKETHEQSKVEGAEIAKQIGKKTGYNISGTDPEAKGYHRKVAVTQTSKDKTRTVTIEPKHNGYDPSKEVGDYYTIILWYAPGFDGSIVDVSKTTVNVEGGVEHQVYKNSDLHTVVIDVKEVIGTTKSVKITCTAA
As for B1, the pI in data set [4] amounted to 4.5.

B2: GLsc1-lyase: lyase purified from Gracilariopsis lemaneiformis collected in Santa Cruz, Calif. (protein)
chain: TALSDKQTAISIGPDNPDGINYQNYDYIPVAGFTPLSNTNWYAAGSSTPGGITDWTATMNVKFDRIDNPSYSNNHPVQIQVTSYNNNSFRIRFNPDGPIRDVSRGPILKQQLTWIRNQELAQGCNPNMSFSPEGFLSFETKDLNVIIYGNCKMRVTKKDGYLVMENDECNSQSDGNKCRGLMYVDRLYGNAIASVQTNFHKDTSRNEKFYGAGEVNCRYEEQGKAPTYVLERSGLAMTNYNYDNLNYNQPDVVPPGYPDHPNYYIPMYYAAPWLVVQGCAGTSKQYSYGWFMDNVSQSYMNTGDTAWNCGQENLAYMGAQYGPFDQHFVYGDGDGLEDVVKAFSFLQGKEFEDKKLNKRSVMPPKYVFGFFQGVFGALSLLKQNLPAGENNISVQEIVEGYQDNDYPFEGLAVDVDMQDDLRVFTTKPEYWSANMVGEGGDPNNRSVFEWAHDRGLVCQTNVTCFLRNDNSGKPYEVNQTLREKQLYTKNDSLNNTDFGTTSDGPGDAYIGHLDYGGGVECDAIFPDWGRPDVAQWWGENYKKLFSIGLDFVWQDMTVPAMMPHRLGDAVNKNSGSSAPGWPNENDPSNGRYNWKSYHPQVLVTDMRYGAEYGREPMVSQRNIHAYTLCESTRREGIVGNADSLTKFRRSYIISRGGYIGNQHFGGMWVGDNSATESYLQMMLANIINMNMSCLPLVGSDIGGFTQYNDAGDPTPEDLMVRFVQAGCLLPWFRNHYDRWIESKKHGKKYQELYMYPGQKDTLKKFVEFRYRWQEVLYTAMYQNATTGEPIIKAAPMYNNDVNVYKSQNDHFLLGGHDGYRILCAPVVRENATSREVYLPVYSKWFKFGPDFDTKPLENEIQGGQTLYNYAAPLNDSPIFVREGTILPTRYTLDGVNKSINTYTDNDPLVFELFPLENNQAHGLFYHDDGGVTTNAEDFGKYSVISVKAAQEGSQMSVKFDNEVYEHQWGASFYVRVRNMGAPSNINVSSQIGQQDMQQSSVSSRAQMFTSANDGEYWVDQSTNSLWLKLPGAVIQDAAITVR
Molecule B2 showed a pI in data set [4] of 4.1.
